{"source": "patent US7465798B2", "about": "“Methods and compositions for selectin inhibition” (Wyeth, priority 2003, dated 2008)", "target": "T1, human P-selectin (Homo sapiens, UniProt P16109)", "T1 construct": "truncated form of human P-selectin comprised of the lectin and EGF domains (P-LE)", "T1 sequence (P16109 42-198)": "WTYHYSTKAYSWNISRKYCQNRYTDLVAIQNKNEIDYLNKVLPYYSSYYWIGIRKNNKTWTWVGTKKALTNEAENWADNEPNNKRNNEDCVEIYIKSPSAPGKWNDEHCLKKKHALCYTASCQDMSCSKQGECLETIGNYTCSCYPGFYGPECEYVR", "assay": "Biacore inhibition of P-selectin binding to PSGL-1 (P-LE to immobilized SGP-3)", "conditions": "at 1 mM", "procedure": "Compounds of the invention can be assayed for selectin inhibitory activity using any of the procedures known in the art. One convenient procedure is the determination of IC50 values for inhibition of P-selectin binding to P-selectin glycoprotein ligand-1 (PSGL-1) using Biacore.\nThe Biacore 3000 is an instrument that uses surface plasmon resonance to detect binding of a solution phase analyte to an immobilized ligand on a sensor chip surface. The analyte sample is injected under flow using a microfluidic system. Binding of analyte to ligand causes a change in the angle of refracted light at the surface of the sensor chip, measured by the Biacore instrument in resonance units (RUs).\nSGP-3 is a purified sulfoglycopeptide form of human PSGL-1 that contains the P-selectin binding determinants (See Somers et al., 2000, Cell 103, 467-479). SGP-3 was biotinylated via amine chemistry at a unique C-terminal lysine residue and immobilized on streptavidin-coated SA sensor chip. […]\nThe Biacore assay measures the signal in RU produced by binding of P-LE to SGP-3 in the presence and absence of inhibitors. Percent inhibition of binding is calculated by dividing the inhibited signal by the uninhibited signal subtracting this value from one then multiplying by one hundred. […] The data from this titration are plotted, RU values vs. concentration, and the IC50 is determined by extrapolation from the plot. […]"}
{"smiles": "CC1(C)[C@@H](O[C@H]2O[C@H](C(=O)O)[C@@H](O)[C@H](O)[C@H]2O[C@@H]2O[C@H](C(=O)O)[C@@H](O)[C@H](O)[C@H]2O)CC[C@]2(C)[C@H]3C(=O)C=C4[C@@H]5C[C@@](C)(C(=O)O)CC[C@]5(C)CC[C@@]4(C)[C@]3(C)CC[C@@H]12", "note": "[Glycerrhizzin]", "values": [{"measurement": "percent inhibition of binding (positive control)", "value": 50, "unit": "%"}]}
